Like-named read-outs stand apart in the source and are kept apart here. *1 amine or outer side, *2 acyl side, *3 side chain or, on linkers, in order; H or OH if unused. Where a SMILES comes first, the peptide text is derived from it. Bridges are numbered along the chain shown (N, C = ends). [ ]: non-standard residue; d: D form. The star is where a group is joined. hPhe(3-Cl-4-CF3) = N[C@@H](CCc1ccc(C(F)(F)F)c(Cl)c1)C(=O)O; NPrPhe(4-CF3) = CCCN[C@@H](Cc1ccc(C(F)(F)F)cc1)C(=O)O; NMeGly(cPent) = CN[C@H](C(=O)O)C1CCCC1; NMeD = CN[C@@H](CC(=O)O)C(=O)O; NMeL = CN[C@@H](CC(C)C)C(=O)O; X12 = N#CCN(CC(=O)[*:2])[*:1]; Morpholide = C1CN(*)CCO1; Ac5c = NC1(C(=O)O)CCCC1; Sar = CNCC(=O)O
Legend:
[1] = biological target: GDP-bound KRAS wild-type protein (Homo sapiens, UniProt P01116); test: Binding to KRAS by surface plasmon resonance (SPR), Single Cycle Kinetics; conditions: GDP-bound KRAS wild-type protein, read-out: KRAS KD
[2] = biological target: GDP-bound NRAS wild-type protein (Homo sapiens, UniProt P01111); test: Binding to NRAS by surface plasmon resonance (SPR), Single Cycle Kinetics; conditions: for NRAS/KRAS (ratio of KD value with respect to NRAS to KD value with respect to KRAS) / NRAS/KRAS (ratio of KD value for NRAS to KD value for KRAS): SPR, GDP-bound NRAS wild-type protein vs GDP-bound KRAS wild-type protein
[3] = biological target: GDP-bound HRAS wild-type protein (Homo sapiens, UniProt P01112); test: Binding to HRAS by surface plasmon resonance (SPR), Single Cycle Kinetics; conditions: for HRAS/KRAS (ratio of KD value with respect to HRAS to KD value with respect to KRAS) / HRAS/KRAS (ratio of KD value for HRAS to KD value for KRAS): SPR, GDP-bound HRAS wild-type protein vs GDP-bound KRAS wild-type protein
[4] = SPR Single Cycle Kinetics, 1:1 binding model

Sequence of GDP-bound KRAS wild-type protein (P01116 whole entry): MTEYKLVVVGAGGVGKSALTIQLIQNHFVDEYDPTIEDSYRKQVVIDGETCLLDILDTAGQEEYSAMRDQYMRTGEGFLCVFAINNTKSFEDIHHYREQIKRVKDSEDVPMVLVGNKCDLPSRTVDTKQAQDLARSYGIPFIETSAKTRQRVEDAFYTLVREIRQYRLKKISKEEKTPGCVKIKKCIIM
Sequence of GDP-bound NRAS wild-type protein (P01111 whole entry): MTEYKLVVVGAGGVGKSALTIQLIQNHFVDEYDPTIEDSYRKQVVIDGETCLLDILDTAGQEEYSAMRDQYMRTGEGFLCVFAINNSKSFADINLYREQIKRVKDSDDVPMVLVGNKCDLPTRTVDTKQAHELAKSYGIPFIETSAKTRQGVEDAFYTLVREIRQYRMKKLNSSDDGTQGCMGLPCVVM
Sequence of GDP-bound HRAS wild-type protein (P01112 whole entry): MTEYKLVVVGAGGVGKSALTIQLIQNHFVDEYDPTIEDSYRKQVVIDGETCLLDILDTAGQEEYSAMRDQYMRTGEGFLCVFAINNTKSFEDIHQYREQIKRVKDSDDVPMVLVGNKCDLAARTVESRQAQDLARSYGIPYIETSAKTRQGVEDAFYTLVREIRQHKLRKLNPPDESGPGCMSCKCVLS

Structure (SMILES): CC(C)C[C@H]1C(=O)N[C@@H](C2CCC2)C(=O)N(C)CC(=O)N(C)[C@H]2CCCCCN(C2=O)[C@@H](Cc2ccc(C(F)(F)F)cc2)C(=O)N(C)CC(=O)N[C@@H](CCc2cc(F)c(C(F)(F)F)c(F)c2)C(=O)N2CCC[C@H]2C(=O)NC2(CCCC2)C(=O)N(C)[C@@H](C2CCCC2)C(=O)N(C)[C@H](C(=O)N2CCOCC2)CC(=O)N1C [PP0522]
- Kd [1, 4]: 2.8 nM
- NRAS/KRAS (ratio of KD value with respect to NRAS to KD value with respect to KRAS) [2]: B (a compound having 3 or more and less than 10 is denoted as B)
- HRAS/KRAS (ratio of KD value with respect to HRAS to KD value with respect to KRAS) [3]: B (a compound having 3 or more and less than 10 is denoted as B)

Structure (SMILES): CCO[C@@H]1C[C@H]2C(=O)NC3(CCC3)C(=O)N(C)[C@@H](C3CCCC3)C(=O)N(C)[C@H](C)CC(=O)N(C)[C@@H](CC3CC3)C(=O)N[C@@H]([C@@H](C)CC)C(=O)N(C)CC(=O)N(C)[C@H]3C/C=C\CCN(C3=O)[C@@H](Cc3ccc(F)cc3)C(=O)N(C)CC(=O)N[C@@H](CCc3cc(F)c(C(F)(F)F)c(F)c3)C(=O)N2C1 [PP1490]
- Kd ([1]; SPR, Single Cycle Kinetics, 1:1 binding model): 0.6 nM
- NRAS/KRAS (ratio of KD value for NRAS to KD value for KRAS) ([2]; KD ratio class): B (a compound having 3 or more and less than 10 is denoted as B)
- HRAS/KRAS (ratio of KD value for HRAS to KD value for KRAS) ([3]; KD ratio class): B (a compound having 3 or more and less than 10 is denoted as B)

Structure (SMILES): CCO[C@@H]1C[C@H]2C(=O)NC3(CCC3)C(=O)N(C)[C@@H](C3CCCC3)C(=O)N(C)[C@H](C(=O)N(C)C)CC(=O)N(C)[C@@H](CC)C(=O)N[C@@H]([C@@H](C)CC)C(=O)N(C)CC(=O)N(C)[C@H]3CC=C(C)CN(C3=O)[C@@H](Cc3ccc(C(F)(F)F)cc3)C(=O)N(C)CC(=O)N[C@@H](CCc3cc(F)c(C(F)(F)F)c(F)c3)C(=O)N2C1 [PP0827]
- Kd ([1]; SPR, Single Cycle Kinetics): 0.11 nM
- NRAS/KRAS (ratio of KD value for NRAS to KD value for KRAS) [2]: C (A compound having a KD ratio of 0.1 or more and less than 3 is denoted as C)
- HRAS/KRAS (ratio of KD value for HRAS to KD value for KRAS) [3]: C (A compound having a KD ratio of 0.1 or more and less than 3 is denoted as C)

Structure (SMILES): CCO[C@@H]1C[C@H]2C(=O)NC3(CCC3)C(=O)N(C)[C@@H](C3CCCC3)C(=O)N(C)[C@H](C(=O)N3CCCCC3)CC(=O)N(C)[C@H]3CCC/C=C/c4ccc(cc4)C[C@@H](C(=O)N(C)CC(=O)N[C@@H](CCc4cc(F)c(C(F)(F)F)c(F)c4)C(=O)N2C1)N1CC/C=C\C[C@@H](C1=O)N(C)C(=O)CN(C1CC1)C(=O)[C@H]([C@@H](C)CC)NC3=O [PP2954]
- Kd [1, 4]: 0.37 nM
- NRAS/KRAS (ratio of KD value with respect to GDP-bound NRAS wild-type protein to KD value with respect to KRAS) ([2]; SPR KD ratio NRAS/KRAS, class symbols): A (a compound having 10 or more and less than 20 is denoted as A)
- HRAS/KRAS (ratio of KD value with respect to GDP-bound HRAS wild-type protein to KD value with respect to KRAS) ([3]; SPR KD ratio HRAS/KRAS, class symbols): A (a compound having 10 or more and less than 20 is denoted as A)

Structure (SMILES): CC[C@H](C)[C@@H]1NC(=O)[C@@H]2CCCCCN2C(=O)C[C@@H](C(=O)N2CCOCC2)N(C)C(=O)[C@H](C2CCCC2)N(C)C(=O)C2(CCCC2)NC(=O)[C@@H]2CCCN2C(=O)[C@H](CCc2cc(F)c(C(F)(F)F)c(F)c2)NC(=O)CN(C)C(=O)[C@H](Cc2ccc(C(F)(F)F)cc2)N2CCCCC[C@@H](C2=O)N(C)C(=O)CN(C)C1=O [PP0521]
- Kd [1, 4]: 72 nM
- NRAS/KRAS (ratio of KD value with respect to NRAS to KD value with respect to KRAS) [2]: B (a compound having 3 or more and less than 10 is denoted as B)
- HRAS/KRAS (ratio of KD value with respect to HRAS to KD value with respect to KRAS) [3]: B (a compound having 3 or more and less than 10 is denoted as B)

Structure (SMILES): CCO[C@@H]1C[C@H]2C(=O)NC3(CCCC3)C(=O)N(C)[C@@H](C3CCCC3)C(=O)N(C)[C@H](C(=O)N(C)C)CC(=O)N(C)[C@@H](CC(C)C)C(=O)N[C@@H]([C@@H](C)CC)C(=O)N(C)CC(=O)N(C)[C@H]3C/C=C\CCN(C3=O)[C@@H](Cc3ccc(C)cc3)C(=O)N(C)CC(=O)N[C@@H](CCc3ccc(C(F)(F)F)c(OC)c3)C(=O)N2C1 [PP2197]
- Kd ([1]; SPR, Single Cycle Kinetics): 0.15 nM
- NRAS/KRAS (ratio of KD value for NRAS to KD value for KRAS) [2]: A (a compound having 10 or more and less than 20 is denoted as A)
- HRAS/KRAS (ratio of KD value for HRAS to KD value for KRAS) [3]: B (a compound having 3 or more and less than 10 is denoted as B)

Structure (SMILES): CCCN1C(=O)CN(C)C(=O)CN(CC#N)C(=O)[C@H]([C@@H](C)CC)NC(=O)[C@H](CC(C)C)N(C)C(=O)C[C@@H](C(=O)N2CCOCC2)N(C)C(=O)[C@H](C2CCCC2)N(C)C(=O)C2(CCCC2)NC(=O)[C@@H]2CCCN2C(=O)[C@H](CCc2ccc(C(F)(F)F)c(Cl)c2)NC(=O)CN(C)C(=O)[C@@H]1Cc1ccc(C(F)(F)F)cc1 [PP0254] ([NMeL]I[X12][Sar][NPrPhe(4-CF3)][Sar][hPhe(3-Cl-4-CF3)]P[Ac5c][NMeGly(cPent)][NMeD]-Morpholide; lactam N-11)
- Kd [1, 4]: 0.16 nM
- NRAS/KRAS (ratio of KD value for NRAS to KD value for KRAS) [2]: B (a compound having 3 or more and less than 10 is denoted as B)
- HRAS/KRAS (ratio of KD value for HRAS to KD value for KRAS) [3]: C (A compound having a KD ratio of 0.1 or more and less than 3 is denoted as C)

Reference: patent US20240158446A1, “CYCLIC COMPOUND HAVING SELECTIVE INHIBITORY ACTION ON KRAS OVER HRAS AND NRAS” (CHUGAI SEIYAKU KABUSHIKI KAISHA, priority 2021, published 2024)
